Laboratory results published in publication PMC3465485 (Antiviral research, 2012).
Like-named read-outs stand apart in the source and are kept apart here.

Assays:
[1] = system: influenza A/California/07/2009 (H1N1) virus
[2] = in vitro; conditions: dog
[3] = system: influenza A/California/07/2009 (H1N1) virus; assay: microbe, parasite or virus in culture; conditions: H1N1, MDCK
[4] = target: A/California/07/2009 neuraminidase (Influenza A virus (A/California/07/2009(H1N1)), UniProt C3W6G3); assay type: biochemical
[5] = 100 mg/kg/day; no reference given; cited from earlier work
[6] = system: MDCK cells

NC12CC3CC(CC(C3)C1)C2 [Amantadine]
antiviral activity in cell culture (in words) [1]: no antiviral effect
CC50 [2]: > 100 µM
EC50 [3]: > 100 µM

CCC(CC)O[C@@H]1C=C(C(=O)O)C[C@H](N)[C@H]1NC(C)=O [Oseltamivir Carboxylate, Oseltamivir carboxylate]
neuraminidase inhibition (in words) [4]: slightly less potent than the other two compounds
EC50 [1]: 0.06 ± 0.1 µM
CC50 [2]: > 100 µM

NC(=O)c1ncn([C@@H]2O[C@H](CO)[C@@H](O)[C@H]2O)n1 [Ribavirin]
toxicity in mice (in words) [5]: begins to cause toxicity
EC50 [3]: 28 ± 11 µM

CC(N)C12CC3CC(CC(C3)C1)C2 (stereo not drawn) [Rimantadine]
SI (CC50/EC50) [1]: 0
antiviral activity in cell culture (in words) [1]: no antiviral effect
CC50 [2]: 22 ± 1 µM
EC50 [3]: > 22 µM

CC(=O)N[C@H]1[C@H]([C@H](O)[C@H](O)CO)OC(C(=O)O)=C[C@@H]1N=C(N)N [Zanamivir]
EC50 [1]: 0.08 ± 0.07 µM
CC50 [2]: > 100 µM

Peramivir
IC50 [4]: 0.0029 ± 0.0006 µM
CC50 [6]: > 100 µM
EC50 [1]: 0.04 ± 0.07 µM
SI (CC50/EC50) [1]: >2500
